This is an account of results in patent US20240300945A1, “CLY SERIES COMPOUND, PREPARATION METHOD THEREFOR AND USE THEREOF IN PREPARATION OF DRUGS” (NANJING WELLBEST PHARMACEUTICAL CO., LTD, priority 2021, published 2024).

Molecules are shown by their SMILES. Marks after values point to notes of the source that are not given here.

The subject of data set [1] is skin hair follicles and sebaceous glands of mice. As to the kind of experiment: Mouse hair loss model: histopathological grading of skin hair follicles and sebaceous glands. Conditions: external 2% tincture, 60 days, 6 mice per group; for number of mice with hair follicle and sebaceous gland grade +++: grade +++ (most severe); for number of mice with hair follicle and sebaceous gland grade ±: grade ± (lesions limited); for number of mice with hair follicle and sebaceous gland grade −: grade − (normal structure). The data set is classed as in vivo, C57BL/6 mice. The text has this: The experimental mice were divided into the negative control group (external use of 60% ethanol), model group (external use of 60% ethanol), positive control group (external use of 2% minoxidil tincture), CLY-1 external treatment group (external use of 2% CLY-1 tincture), CLY-2 external treatment group (external use of 2% CLY-2 tincture), CLY-3 external treatment group (external use of 2% CLY-3 tincture), CLY-4 external treatment group (external use of 2% CLY-4 tincture), CLY-8 external treatment group (external use of 2% CLY-8 tincture) CLY-11 external treatment group (2% CLY-11 tincture), CLY-19 external treatment group (2% CLY-19 tincture), CLY-36 external treatment group (2% CLY-36 tincture), and CLY-39 external treatment group (2% CLY-39 tincture). There were 6 animals in each group, half male and half female. An area of 4 cm×5 cm from the back of experimental mice with hair removed was selected, and the hair removal area was painted yellow with 3% picric acid solution to determine the observation area of the hair removal experiment. In addition to the negative control group, mice in other groups were injected subcutaneously with testosterone propionate injection [8 ml/(kg·d)] at the back of the neck, once a day, for 60 consecutive days, to establish the model of androgenic alopecia (AGA). At the same time of modeling, the rats in the corresponding drug group were smeared with drugs on the observation area of the back at the rate of 1 ml/(piece·time), twice a day, with an interval of 2 hours. The normal control group and the model control group were smeared with the excipient (60% ethanol solution), 1 ml/(one time), twice a day, for 60 consecutive days.
10 hairs were extracted from the observation area on the back of each mouse every 15 days after administration, and the hair length was measured with a vernier caliper. After 60 days of administration, the skin of the experimental observation area was taken for routine tissue dehydration, paraffin embedding, HE staining, and light microscopy to observe the histopathological changes of mouse skin hair follicles and sebaceous glands. Semi-quantitative analysis was performed for each group. The grading criteria are as follows: the normal structure of dermal tissue cells, subcutaneous hair follicles, and sebaceous glands is marked as […]: no hyperplasia of dermal tissue is found, the lesions of hair follicles and sebaceous glands are limited, and no inflammation is found under the skin is marked as “+”: no obvious hyperplasia of dermal tissue is found, and the follicles are obviously cystic. No obvious hyperplasia of sebaceous glands is found, and no inflammation is found under the skin is marked as “+”: the dermal tissue has segmental hyperplasia, which is not obvious, A small number of hair follicles have cystic changes, and the sebaceous glands have mild hyperplasia and hypertrophy. There is no obvious inflammation under the skin, which is marked as “++”: the dermal tissue cells of the skin have different degrees of segmental hyperplasia, and some hair follicles have cystic changes, showing uneven size of hair follicles, and no cells around. The sebaceous glands have hyperplasia, and the nuclei in the proliferative glands are few. A few subcutaneous mild inflammatory hyperplasia is marked as “+++”.

The next data set deals with rat hair loss model. As to the kind of experiment: Rat hair loss (androgenic alopecia) model: hair length. Conditions: for 15-day hair length / 30-day hair length / 45-day hair length / 60-day hair length: rat AGA model; for adverse reactions: rat hair loss model, external use and system application, 60 days. The data set is classed as in vivo, Wistar rats. The text has this:
(1) Compound CLY-1, CLY-2, CLY-3, CLY-4, CLY-5, CLY-8, CLY-11, CLY-19, CLY-36, CLY-39 tincture preparation method: 75% ethanol was mixed with appropriate amount of above compounds to prepare a tincture of different concentrations.
(2) Positive treatment drug: 5% minoxidil tincture (trade name: Mandi, Zhejiang Wanma Pharmaceutical Co., Ltd.).
Wistar rats were, according to weights, randomly divided into the negative control group (75% ethanol for external use), model group (75% ethanol for external use), positive control group (external 5% minoxidil tincture), CLY-1 external treatment group (external 5% CLY-1 tincture), CLY-2 external treatment group (external 5% CLY-2 tincture), CLY-3 external treatment group (external 5% CLY-3 tincture), CLY-4 external treatment group (external 5% CLY-4 tincture), and CLY-5 external treatment group (external 5% CLY-5 tincture) according to their body weight CLY-8 external treatment group (external 5% CLY-8 tincture), CLY-11 external treatment group (external 5% CLY-11 tincture), CLY-19 external treatment group (external 5% CLY-19 tincture), CLY-36 external treatment group (external 5% CLY-36 tincture), CLY-39 external treatment group (external 5% CLY-39 tincture), CLY-1 intravenous injection group (2 mg/kg·d), CLY-3 intravenous injection group (2 mg/kg·d), CLY-4 intravenous injection group (2 mg/kg·d) CLY-5 intravenous injection group (2 mg/kg·d), CLY-8 intravenous injection group (2 mg/kg·d), CLY-11 intravenous injection group (2 mg/kg·d), CLY-19 intravenous injection group (2 mg/kg·d), CLY-36 intravenous injection group (2 mg/kg·d), and CLY-39 intravenous injection group (2 mg/kg·d), with 10 rats in each group. Before the experiment, an area of 4 cm×5 cm was selected on each rat on the back of the neck to remove hair as the observation area. In addition to the negative control group, rats were subcutaneously injected with testosterone propionate injection [5 ml/(kg·d)] once a day for 60 days to establish the androgenic alopecia (AGA) model. […] At the same time, the drug was applied to the observation area on the back of the rats in the corresponding drug group at the rate of 2 mL/(one time), twice a day, at an interval of 8 hours; Intravenous administration once a day. The negative control group and the model control group were smeared with 75% ethanol solution, 2 mL/(one rat per time), twice a day, for 60 days.
Took 10 hairs from the observation area on the back of each rat every 15 days after administration, and measured the hair length with a vernier caliper. After 60 days of administration, the skin of the experimental observation area was taken for routine tissue dehydration, paraffin embedding, HE staining, and light microscopy to observe the histopathological changes of the rat skin hair follicles and sebaceous glands. Semi-quantitative analysis was performed for each group. The grading criteria are as follows: the normal structure of dermal tissue cells, subcutaneous hair follicles, and sebaceous glands is marked as […]: no hyperplasia of dermal tissue is found, the lesions of hair follicles and sebaceous glands are limited, and no inflammation is found under the skin is marked as “+”: no obvious hyperplasia of dermal tissue is found, and the follicles are obviously cystic. No obvious hyperplasia of sebaceous glands is found, and no inflammation is found under the skin is marked as “+”: the dermal tissue has segmental hyperplasia, which is not obvious, A small number of hair follicles have cystic changes, and the sebaceous glands have mild hyperplasia and hypertrophy. There is no obvious inflammation under the skin, which is marked as “++”: the dermal tissue cells of the skin have different degrees of segmental hyperplasia, and some hair follicles have cystic changes, showing uneven size of hair follicles, and no cells around. The sebaceous glands have hyperplasia, and the nuclei in the proliferative glands are few. […]

Where [2] appears, read: external 5% tincture twice a day.
Where [3] appears, read: intravenous injection 2 mg/kg·d.

On to `CN1CCC[C@@H](N(C(=O)c2ccc(-n3nnc4cccnc43)cc2)c2ncccc2Cl)C1` [CLY-1, (R)-4-(3H-[1,2,3]triazolo[4,5-b]pyridin-3-yl)-N-(3-chloropyridin-2-yl)-N-(1-methylpiperidin-3-yl)benzamide], for which, in data set [1], the “number of mice with hair follicle and sebaceous gland grade +++” value is on record as 0; the “number of mice with hair follicle and sebaceous gland grade ++” value amounted to 1; the “number of mice with hair follicle and sebaceous gland grade +” value came out at 2; the “number of mice with hair follicle and sebaceous gland grade ±” value is given as 3. In addition, the “number of mice with hair follicle and sebaceous gland grade −” value in data set [1] amounted to 0. Besides, in the data set on rat hair loss model (setting [2]), the 15-day hair length is recorded as 8.3* mm, the 30-day hair length is reported as 9.3* mm, the 45-day hair length was 14.2* mm and the 60-day hair length was 17.6* mm. In the data set on rat hair loss model (setting [3]), the 15-day hair length is 8.7* mm, the 30-day hair length was 9.6* mm, the 45-day hair length is 14.6* mm and the 60-day hair length is reported as 17.9* mm. Further, in the data set on rat hair loss model, the adverse reactions entry is “no obvious adverse reactions”.
`CCN1CCC[C@@H](N(C(=O)c2ccc(-n3nnc4cccnc43)cc2)c2ncccc2Cl)C1` [CLY-2, (R)-4-(3H-[1,2,3]triazolo[4,5-b]pyridin-3-yl)-N-(3-chloropyridin-2-yl)-N-(1-ethylpiperidin-3-yl)benzamide]: in data set [1], the “number of mice with hair follicle and sebaceous gland grade +++” value is reported as 0; the “number of mice with hair follicle and sebaceous gland grade ++” value is on record as 0; the “number of mice with hair follicle and sebaceous gland grade +” value is reported as 2; the “number of mice with hair follicle and sebaceous gland grade ±” value was found to be 4. The “number of mice with hair follicle and sebaceous gland grade −” value in data set [1] is 0. Further, in the data set with rat hair loss model (setting [2]), the 15-day hair length was 9.1* mm, the 30-day hair length was 10.1* mm, the 45-day hair length was 15.3* mm and the 60-day hair length is 18.9* mm. Also, in the data set with rat hair loss model (setting [3]), the 15-day hair length is 9.2* mm, the 30-day hair length is 10.3* mm, the 45-day hair length was 15.6* mm and the 60-day hair length is on record as 19.1* mm. For the same molecule, in the data set with rat hair loss model, the adverse reactions entry was “no obvious adverse reactions”.
On to `NC1CCCC(N(C(=O)c2ccc(-n3nnc4cccnc43)cc2)c2ncccc2Cl)C1` (stereo not shown) [CLY-11], for which, in data set [1], the “number of mice with hair follicle and sebaceous gland grade +++” value is given as 0; the “number of mice with hair follicle and sebaceous gland grade ++” value is reported as 2; the “number of mice with hair follicle and sebaceous gland grade +” value stood at 1; the “number of mice with hair follicle and sebaceous gland grade ±” value stood at 3. Further, the “number of mice with hair follicle and sebaceous gland grade −” value in data set [1] is 0. For the same molecule, in the data set with rat hair loss model (setting [2]), the 15-day hair length is given as 8.2* mm, the 30-day hair length is reported as 9.1* mm, the 45-day hair length is 13.89* mm and the 60-day hair length is recorded as 17.4* mm. In the data set with rat hair loss model (setting [3]), the 15-day hair length was 8.6* mm, the 30-day hair length is reported as 9.3* mm, the 45-day hair length is given as 14.7* mm and the 60-day hair length is reported as 17.6* mm. Also, the adverse reactions result with rat hair loss model was “no obvious adverse reactions”.
With `O=C(c1ccc(-n2nnc3cccnc32)cc1)N(c1ncccc1Cl)C1CCCC(O)C1` (stereo not shown) [CLY-4], in data set [1], the “number of mice with hair follicle and sebaceous gland grade +++” value came to 0; the “number of mice with hair follicle and sebaceous gland grade ++” value is given as 2; the “number of mice with hair follicle and sebaceous gland grade +” value is 2; the “number of mice with hair follicle and sebaceous gland grade ±” value came to 2. The “number of mice with hair follicle and sebaceous gland grade −” value in data set [1] came out at 0. In the data set with rat hair loss model (setting [2]), the 15-day hair length is listed as 7.2* mm, the 30-day hair length is given as 8.3* mm, the 45-day hair length is on record as 12.26* mm and the 60-day hair length is 16.1* mm. For the same molecule, in the data set with rat hair loss model (setting [3]), the 15-day hair length was 7.1* mm, the 30-day hair length was 8.6* mm, the 45-day hair length is 13.5* mm and the 60-day hair length is 16.3* mm. Moreover, the adverse reactions entry in the data set on rat hair loss model was “no obvious adverse reactions”.
Take `O=C(c1ccc(-c2ccccc2-c2nnn[nH]2)cc1)N(c1ncccc1Cl)[C@@H]1CCCNC1` [CLY-19]: in data set [1], the “number of mice with hair follicle and sebaceous gland grade +++” value was determined as 0; the “number of mice with hair follicle and sebaceous gland grade ++” value is given as 1; the “number of mice with hair follicle and sebaceous gland grade +” value is on record as 2; the “number of mice with hair follicle and sebaceous gland grade ±” value turned out to be 3. For the same molecule, the “number of mice with hair follicle and sebaceous gland grade −” value in data set [1] is 0. For the same molecule, in the data set on rat hair loss model (setting [2]), the 15-day hair length is 8.5* mm, the 30-day hair length is on record as 9.4* mm, the 45-day hair length is given as 14.02* mm and the 60-day hair length is given as 17.6* mm. In the data set with rat hair loss model (setting [3]), the 15-day hair length is given as 8.8* mm, the 30-day hair length is listed as 9.7* mm, the 45-day hair length is 14.9* mm and the 60-day hair length is reported as 17.8* mm. Besides, the adverse reactions result in the data set on rat hair loss model is reported as “no obvious adverse reactions”.
